Measurements reported in the supplement of paper PMC10307832.

Columns and labels:
Experiment in all cases: relative viability (nuclei count vs DMSO), 5 days (fraction); higher = more cells survive
[1] = test system: COR-L23
Procedure, shortened: (§1)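 The day after seeding in 1536-well plates, lung cancer cell lines were treated by pin tool with a single drug, or with a fixed anchor-drug dose together with five library-drug doses (not always all listed) in √10 steps. After 5 days, a combined fix-and-stain solution (final 0.05% Triton X-100, 1% formaldehyde, 1 ug/ml Hoechst) was added. Nuclei counted on 4× images gave relative viability as treated counts over vehicle counts, reported as the median of duplicate plates.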

[2] = test system: SK-MES-1
Procedure, shortened: as §1

[3] = test system: HOP-62
Procedure, shortened: as §1

[4] = test system: NCI-H358
Procedure, shortened: as §1

[5] = test system: NCI-H1993
Procedure, shortened: as §1

[6] = test system: NCI-H522
Procedure, shortened: as §1

[7] = test system: NCI-H322M
Procedure, shortened: as §1

[8] = test system: NCI-H2347
Procedure, shortened: as §1

[9] = test system: NCI-H1355
Procedure, shortened: as §1

[10] = test system: NCI-H2009
Procedure, shortened: as §1

[11] = test system: NCI-H2170
Procedure, shortened: as §1

[12] = test system: COR-L 105
Procedure, shortened: as §1

[13] = test system: NCI-H838
Procedure, shortened: as §1

[14] = test system: NCI-H1755
Procedure, shortened: as §1

[15] = test system: NCI-H1793
Procedure, shortened: as §1

[16] = test system: PC-14
Procedure, shortened: as §1

[17] = test system: NCI-H2342
Procedure, shortened: as §1

[18] = test system: HARA
Procedure, shortened: as §1

[19] = test system: EKVX
Procedure, shortened: as §1

[20] = test system: UMC-11
Procedure, shortened: as §1

[21] = test system: NCI-H647
Procedure, shortened: as §1

[22] = test system: NCI-H1734
Procedure, shortened: as §1

[23] = test system: NCI-H1395
Procedure, shortened: as §1

[24] = test system: NCI-H2228
Procedure, shortened: as §1

Clc1ccc(Nc2nnc(Cc3ccncc3)c3ccccc23)cc1 [Vatalanib] + O=C(CCCCCCC(=O)Nc1ccccc1)NO [Vorinostat] (partner 1 µM)
relative viability ([1]; first compound 0.04 µM): 0.356
relative viability ([1]; first compound 0.1265 µM): 0.553
relative viability ([1]; first compound 0.4 µM): 0.499
relative viability ([1]; first compound 1.265 µM): 0.417
relative viability ([1]; first compound 4 µM): 0.469
relative viability ([2]; first compound 0.04 µM): 1.13
relative viability ([2]; first compound 0.1265 µM): 1.11
relative viability ([2]; first compound 0.4 µM): 1.12
relative viability ([2]; first compound 1.265 µM): 0.98
relative viability ([2]; first compound 4 µM): 0.985
relative viability ([3]; first compound 0.04 µM): 0.6
relative viability ([3]; first compound 0.1265 µM): 0.557
relative viability ([3]; first compound 0.4 µM): 0.758
relative viability ([3]; first compound 1.265 µM): 0.597
relative viability ([3]; first compound 4 µM): 0.642
relative viability ([4]; first compound 0.04 µM): 0.683
relative viability ([4]; first compound 0.1265 µM): 0.719
relative viability ([4]; first compound 0.4 µM): 0.686
relative viability ([4]; first compound 1.265 µM): 0.713
relative viability ([4]; first compound 4 µM): 0.632
relative viability ([5]; first compound 0.04 µM): 0.728
relative viability ([5]; first compound 0.1265 µM): 0.795
relative viability ([5]; first compound 0.4 µM): 0.806
relative viability ([5]; first compound 1.265 µM): 0.709
relative viability ([5]; first compound 4 µM): 0.726
relative viability ([6]; first compound 0.04 µM): 0.634
relative viability ([6]; first compound 0.1265 µM): 0.898
relative viability ([6]; first compound 0.4 µM): 1.06
relative viability ([6]; first compound 1.265 µM): 1
relative viability ([6]; first compound 4 µM): 0.895
relative viability ([7]; first compound 0.04 µM): 0.898
relative viability ([7]; first compound 0.1265 µM): 0.867
relative viability ([7]; first compound 0.4 µM): 0.825
relative viability ([7]; first compound 4 µM): 0.899
relative viability ([8]; first compound 0.04 µM): 0.473
relative viability ([8]; first compound 0.1265 µM): 0.772
relative viability ([8]; first compound 0.4 µM): 0.516
relative viability ([8]; first compound 1.265 µM): 0.501
relative viability ([8]; first compound 4 µM): 0.586
relative viability ([9]; first compound 0.04 µM): 0.684
relative viability ([9]; first compound 0.1265 µM): 0.691
relative viability ([9]; first compound 0.4 µM): 0.727
relative viability ([9]; first compound 1.265 µM): 0.57
relative viability ([9]; first compound 4 µM): 0.581
relative viability ([10]; first compound 0.04 µM): 0.767
relative viability ([10]; first compound 0.1265 µM): 0.741
relative viability ([10]; first compound 0.4 µM): 0.735
relative viability ([10]; first compound 1.265 µM): 0.732
relative viability ([10]; first compound 4 µM): 0.687
relative viability ([11]; first compound 0.04 µM): 0.858
relative viability ([11]; first compound 0.1265 µM): 0.853
relative viability ([11]; first compound 0.4 µM): 0.825
relative viability ([11]; first compound 1.265 µM): 0.743
relative viability ([11]; first compound 4 µM): 0.764
relative viability ([12]; first compound 0.04 µM): 0.846
relative viability ([12]; first compound 0.1265 µM): 0.806
relative viability ([12]; first compound 0.4 µM): 0.829
relative viability ([12]; first compound 1.265 µM): 0.905
relative viability ([12]; first compound 4 µM): 0.794
relative viability ([13]; first compound 0.04 µM): 0.738
relative viability ([13]; first compound 0.1265 µM): 0.761
relative viability ([13]; first compound 0.4 µM): 0.775
relative viability ([13]; first compound 1.265 µM): 0.62
relative viability ([13]; first compound 4 µM): 0.694
relative viability ([14]; first compound 0.04 µM): 0.799
relative viability ([14]; first compound 0.1265 µM): 0.891
relative viability ([14]; first compound 0.4 µM): 0.757
relative viability ([14]; first compound 1.265 µM): 0.759
relative viability ([14]; first compound 4 µM): 0.694
relative viability ([15]; first compound 0.04 µM): 0.767
relative viability ([15]; first compound 0.1265 µM): 0.845
relative viability ([15]; first compound 0.4 µM): 0.97
relative viability ([15]; first compound 1.265 µM): 0.66
relative viability ([15]; first compound 4 µM): 0.71
relative viability ([16]; first compound 0.04 µM): 0.746
relative viability ([16]; first compound 0.1265 µM): 0.721
relative viability ([16]; first compound 0.4 µM): 0.801
relative viability ([16]; first compound 1.265 µM): 0.716
relative viability ([16]; first compound 4 µM): 0.62
relative viability ([17]; first compound 0.04 µM): 0.747
relative viability ([17]; first compound 0.1265 µM): 0.714
relative viability ([17]; first compound 0.4 µM): 0.741
relative viability ([17]; first compound 1.265 µM): 0.762
relative viability ([17]; first compound 4 µM): 0.69
relative viability ([18]; first compound 0.04 µM): 0.643
relative viability ([18]; first compound 0.1265 µM): 0.51
relative viability ([18]; first compound 0.4 µM): 0.479
relative viability ([18]; first compound 1.265 µM): 0.566
relative viability ([18]; first compound 4 µM): 0.481
relative viability ([19]; first compound 0.04 µM): 0.773
relative viability ([19]; first compound 0.1265 µM): 0.767
relative viability ([19]; first compound 0.4 µM): 0.831
relative viability ([19]; first compound 1.265 µM): 0.655
relative viability ([19]; first compound 4 µM): 0.665
relative viability ([20]; first compound 0.04 µM): 0.361
relative viability ([20]; first compound 0.1265 µM): 0.469
relative viability ([20]; first compound 0.4 µM): 0.384
relative viability ([20]; first compound 1.265 µM): 0.35
relative viability ([20]; first compound 4 µM): 0.415
relative viability ([21]; first compound 0.04 µM): 0.658
relative viability ([21]; first compound 0.1265 µM): 0.685
relative viability ([21]; first compound 0.4 µM): 0.87
relative viability ([21]; first compound 1.265 µM): 0.641
relative viability ([21]; first compound 4 µM): 0.632
relative viability ([22]; first compound 0.04 µM): 0.804
relative viability ([22]; first compound 0.1265 µM): 0.812
relative viability ([22]; first compound 0.4 µM): 0.937
relative viability ([22]; first compound 1.265 µM): 0.761
relative viability ([22]; first compound 4 µM): 0.775
relative viability ([23]; first compound 0.04 µM): 0.71
relative viability ([23]; first compound 0.1265 µM): 0.55
relative viability ([23]; first compound 0.4 µM): 0.6
relative viability ([23]; first compound 4 µM): 0.726
relative viability ([24]; first compound 0.04 µM): 0.795
relative viability ([24]; first compound 0.1265 µM): 0.589
relative viability ([24]; first compound 0.4 µM): 0.653
relative viability ([24]; first compound 1.265 µM): 0.723
relative viability ([24]; first compound 4 µM): 0.751
